Source: patent US10392383B2, “3-(1H-benzo[d]imidazol-2-yl)-1H-pyrazolo[4,3-b]pyridines and therapeutic uses thereof” (Samumed, LLC, priority 2015, dated 2019)

Key:
[1] = system: primary human mesenchymal stem cells (hMSCs); test: Induction of chondrogenesis in human mesenchymal stem cells (nodule staining with Rhodamine B / Nile Red); type: cell-based; settings: for Emax: TGF-β3 (10 ng/mL) as positive control, read-out: Max. Activity as % TGF-β3 activity; for EC50: concentration required to induce 50% levels of chondrogenesis vs TGF-β3, read-out: Conc (nM) of 50% TGF-β3 activity
Method: Representative compounds were screened using primary human mesenchymal stem cells (hMSCs) to determine their ability to induce chondrogenesis (process by which cartilage is developed).
Human Mesenchymal Stem Cell Culture: Primary human mesenchymal stem cells (hMSCs) were purchased from Lonza (Walkersville, Md.) and expanded in Mesenchymal Stem Cell Growth Media (Lonza). Cells between passage 3 and 6 were used for the experiments.
Compound Screening: Each compound was dissolved in DMSO as a 10 mM stock and used to prepare compound source plates. For the 96 well assay, serial dilution (1:3, 6-point dose-response curves from 2700 nM to 10 nM) and compound transfer was performed using the ECHO 550 (Labcyte, Sunnyvale, Calif.) into 96-well clear bottom assay plates (Greiner Bio-One) with appropriate DMSO backfill for a final DMSO concentration of 0.03%. hMSCs were plated at 20,000 cells/well in 250 μL/well Incomplete Chondrogenic Induction Medium (Lonza; DMEM, dexamethasone, ascorbate, insulin-transferrin-selenium [ITS supplement], gentamycin-amphotericin [GA-1000], sodium pyruvate, proline and L-glutamine). TGF-β3 (10 ng/mL) was used as a positive control for differentiation while negative control wells were treated with 75 nL DMSO for normalization and calculating EC50 values. For the 384 well assay, serial dilution (1:3, 8-point dose-response curves from 5000 nM to 2.2 nM) and compound transfer was performed using the ECHO 550 (Labcyte, Sunnyvale, Calif.) into 384-well clear bottom assay plates (Greiner Bio-One) with appropriate DMSO backfill for a final DMSO concentration of 0.03%. hMSCs were plated at 8,000 cells/well in 80 μL/well Incomplete Chondrogenic Induction Medium (Lonza; DMEM, dexamethasone, ascorbate, insulin-transferrin-selenium [ITS supplement], gentamycin-amphotericin [GA-1000], sodium pyruvate, proline and L-glutamine). TGF-β3 (10 ng/mL) was used as a positive control for differentiation while negative control wells were treated with 25 nL DMSO for normalization and calculating EC50 values. Cells were incubated at 37° C. and 5% CO2 for 6 days. To image chondrogenic nodules, the cells were fixed using 4% formaldehyde (Electron Microscopy Sciences), and stained with 2 μg/mL Rhodamine B (Sigma-Aldrich) and 20 μM Nile Red (Sigma-Aldrich) [Johnson K., et. al, A Stem Cell-Based Approach to Cartilage Repair, Science, (2012), 336(6082), 717-721]. The nodules imaged (25 images per well for 96 well plates and 9 images per well for 384 well plates at 10× magnification) by excitation at 531 nm and emission at 625 nm and quantified using the CellInsight CX5 (Thermo Scientific). Area of nodules in each well was normalized to the average of 3 DMSO treated wells on the same plate using Excel (Microsoft Inc.). The normalized averages (fold change over DMSO) of 2 or 3 replicate wells for each compound concentration were calculated. Due to solubility limitations of some of the compounds, curve fitting was incomplete leading to inaccurate EC50 determinations.
Using TGF-β3 as a positive control, the concentration of representative compounds required to induce 50% levels of chondrogenesis is reported. In addition, the maximum activity of each compound and the respective dose that each compound reached maximum chondrogenesis activity is reported.

[2] = system: primary human fibroblasts derived from IPF patients (LL29 cells) treated with TGF-β1; test: Inhibition of the fibrotic process: αSMA staining in TGF-β1-treated LL29 fibroblasts; type: cell-based; settings: Fibroblast; for EC50: 96 h, LL29 fibroblasts treated with TGF-β1 (20 ng/mL), 4 days, Table 4; for inhibition at 10 µM: LL29 fibroblasts treated with TGF-β1, Table 4, read-out: percent inhibition at 10 μM (given in parentheses for EC50 >10 μM)
How it was run: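 EC50 from triplicate-well dose-response fits of % αSMA-positive cells, normalized to TGF-β1-stimulated DMSO controls, with SYTOX-positive dead cells excluded. LL29 IPF fibroblasts received compound at 10 μM–1.87 nM (0.1% DMSO) plus 20 ng/mL TGF-β1 for 4 days in 1% FBS medium; above 10 μM, % inhibition at 10 μM reported.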

EC50 [1] [nM]	SMILES	Emax [1] [%]	EC50 [2] [nM]	inhibition at 10 µM [2] [%]
2700	CCCC(=O)Nc1cncc(-c2ccc3[nH]nc(-c4nc5c(-c6ccncc6)cccc5[nH]4)c3n2)c1 [Compound 129, N-(5-(3-(4-(Pyridin-4-yl)-1H-benzo[d]imidazol-2-yl)-1H-pyrazolo[4,3-b]pyridin-5-yl)pyridin-3-yl)butyramide]	59	> 10000	0
10	CC(C)(C)C(=O)Nc1cncc(-c2ccc3[nH]nc(-c4nc5c(-c6ccc(Cl)s6)cccc5[nH]4)c3n2)c1 [Compound 1043, N-(5-(3-(4-(5-chlorothiophen-2-yl)-1H-benzo[d]imidazol-2-yl)-1H-pyrazolo[4,3-b]pyridin-5-yl)pyridin-3-yl)pivalamide]	65	2330	
900	COc1cccc(-c2cccc3[nH]c(-c4n[nH]c5ccc(-c6cncc(NC(=O)Cc7ccccc7)c6)nc45)nc23)c1 [Compound 1000, N-(5-(3-(4-(3-Methoxyphenyl)-1H-benzo[d]imidazol-2-yl)-1H-pyrazolo[4,3-b]pyridin-5-yl)pyridin-3-yl)-2-phenylacetamide]	50	2270	
1670	CCNCc1cncc(-c2ccc3[nH]nc(-c4nc5c(-c6ccccn6)cccc5[nH]4)c3n2)c1 [Compound 146, N-((5-(3-(4-(Pyridin-2-yl)-1H-benzo[d]imidazol-2-yl)-1H-pyrazolo[4,3-b]pyridin-5-yl)pyridin-3-yl)methyl)ethanamine]	279	3680	
10	CN(C)CCOc1cncc(-c2ccc3[nH]nc(-c4nc5c(-c6cccs6)cccc5[nH]4)c3n2)c1 [Compound 707, N,N-Dimethyl-2-((5-(3-(4-(thiophen-2-yl)-1H-benzo[d]imidazol-2-yl)-1H-pyrazolo[4,3-b]pyridin-5-yl)pyridin-3-yl)oxy)ethan-1-amine]	142	1350	
30	O=C(Nc1cncc(-c2ccc3[nH]nc(-c4nc5c(-c6ccc(F)cc6)cccc5[nH]4)c3n2)c1)C1CCC1 [Compound 49, N-(5-(3-(4-(4-Fluorophenyl)-1H-benzo[d]imidazol-2-yl)-1H-pyrazolo[4,3-b]pyridin-5-yl)pyridin-3-yl)cyclobutanecarboxamide]	69	> 10000	0
2	Fc1cccc(-c2cccc3[nH]c(-c4n[nH]c5ccc(-c6cnccn6)nc45)nc23)c1 [Compound 520, 3-(4-(3-Fluorophenyl)-1H-benzo[d]imidazol-2-yl)-5-(pyrazin-2-yl)-1H-pyrazolo[4,3-b]pyridine]	64	4290	
10	Fc1ccc(-c2cccc3[nH]c(-c4n[nH]c5ccc(-c6cncnc6)nc45)nc23)cc1 [Compound 55, 3-(4-(4-Fluorophenyl)-1H-benzo[d]imidazol-2-yl)-5-(pyrimidin-5-yl)-1H-pyrazolo[4,3-b]pyridine]	96	3070	
100	COc1cccc(-c2cccc3[nH]c(-c4n[nH]c5ccc(-c6cccnc6)nc45)nc23)c1 [Compound 994, 3-(4-(3-Methoxyphenyl)-1H-benzo[d]imidazol-2-yl)-5-(pyridin-3-yl)-1H-pyrazolo[4,3-b]pyridine]	70	1050	

More lines, now with the values behind:

SMILES	EC50 [1] [nM]	Emax [1] [%]	EC50 [2] [nM]	inhibition at 10 µM [2] [%]
CC(C)CC(=O)Nc1cncc(-c2ccc3[nH]nc(-c4nc5c(-c6ccc(Cl)s6)cccc5[nH]4)c3n2)c1 [Compound 1037, N-(5-(3-(4-(5-Chlorothiophen-2-yl)-1H-benzo[d]imidazol-2-yl)-1H-pyrazolo [4,3-b]pyridin-5-yl)pyridin-3-yl)-3-methylbutanamide]	10	56	1390	
Fc1cccc(-c2cccc3[nH]c(-c4n[nH]c5ccc(-c6cn[nH]c6)nc45)nc23)c1 [Compound 507, 3-(4-(3-Fluorophenyl)-1H-benzo[d]imidazol-2-yl)-5-(1H-pyrazol-4-yl)-1H-pyrazolo[4,3-b]pyridine]		53	2980	
Cc1ccncc1-c1ccc2[nH]nc(-c3nc4c(-c5ccncc5)cccc4[nH]3)c2n1 [Compound 117, 5-(4-Methylpyridin-3-yl)-3-(4-(pyridin-4-yl)-1H-benzo[d]imidazol-2-yl)-1H-pyrazolo[4,3-b]pyridine]		45	> 10000	0
CC(C)C(=O)Nc1cncc(-c2ccc3[nH]nc(-c4nc5c(N6CCN(C)CC6)cccc5[nH]4)c3n2)c1 [Compound 233, N-(5-(3-(4-(4-Methylpiperazin-1-yl)-1H-benzo[d]imidazol-2-yl)-1H-pyrazolo[4,3-b]pyridin-5-yl)pyridin-3-yl)isobutyramide]	30	52	> 10000	24.7
CC(C)C(=O)Nc1cncc(-c2ccc3[nH]nc(-c4nc5c(-c6cccnc6)cccc5[nH]4)c3n2)c1 [Compound 93, N-(5-(3-(4-(Pyridin-3-yl)-1H-benzo[d]imidazol-2-yl)-1H-pyrazolo[4,3-b]pyridin-5-yl)pyridin-3-yl)isobutyramide]		36	> 10000	0
Fc1ccc(-c2cccc3[nH]c(-c4n[nH]c5ccc(-c6cncc(CN7CCCC7)c6)nc45)nc23)cc1 [Compound 42, 3-(4-(4-Fluorophenyl)-1H-benzo[d]imidazol-2-yl)-5-(5-(pyrrolidin-1-ylmethyl)pyridin-3-yl)-1H-pyrazolo[4,3-b]pyridine]		23	3510	
O=C(Nc1cncc(-c2ccc3[nH]nc(-c4nc5c(-c6ccccc6F)cccc5[nH]4)c3n2)c1)C(F)(F)F [Compound 1126, 2,2,2-Trifluoro-N-(5-(3-(4-(2-fluorophenyl)-1H-benzo[d]imidazol-2-yl)-1H-pyrazolo[4,3-b]pyridin-5-yl)pyridin-3-yl)acetamide]		40	2290	
CN(C)Cc1cncc(-c2ccc3[nH]nc(-c4nc5c(N6CCCCC6)cccc5[nH]4)c3n2)c1 [Compound 181, N,N-dimethyl-1-(5-(3-(4-(piperidin-1-yl)-1H-benzo[d]imidazol-2-yl)-1H-pyrazolo[4,3-b]pyridin-5-yl)pyridin-3-yl)methanamine]	10	52	785	
O=C(Cc1ccccc1)Nc1cncc(-c2ccc3[nH]nc(-c4nc5ccccc5[nH]4)c3n2)c1 [Compound 262, N-(5-(3-(1H-Benzo[d]imidazol-2-yl)-1H-pyrazolo[4,3-b]pyridin-5-yl)pyridin-3-yl)-2-phenylacetamide]		37	> 10000	0
CN1CCN(c2cccc3[nH]c(-c4n[nH]c5ccc(-c6cncc(NC(=O)C(F)(F)F)c6)nc45)nc23)CC1 [Compound 1127, 2,2,2-Trifluoro-N-(5-(3-(4-(4-methylpiperazin-1-yl)-1H-benzo[d]imidazol-2-yl)-1H-pyrazolo[4,3-b]pyridin-5-yl)pyridin-3-yl)acetamide]	30	51	8310	
CC(C)Nc1cncc(-c2ccc3[nH]nc(-c4nc5c(-c6cccnc6)cccc5[nH]4)c3n2)c1 [Compound 96, N-Isopropyl-5-(3-(4-(pyridin-3-yl)-1H-benzo[d]imidazol-2-yl)-1H-pyrazolo [4,3-b]pyridin-5-yl)pyridin-3-amine]		24	1210	
